Drawing on patent US9556202B2, “Sulfonamide derivatives and methods of use thereof for improving the pharmacokinetics of a drug” (MERCK SHARP & DOHME CORP., priority 2012, dated 2017), this text covers IC50 for three molecules.

Assay [1] deals with T1, CYP2C9 (Homo sapiens, UniProt P11712).
T1 construct: 0.1 mg/mL protein human liver microsomes (BD Gentest); tissue BD Gentest; host or cells: human liver microsomes
Kind of assay: Cocktail CYP inhibition assay in human liver microsomes, diclofenac 4'-hydroxylation. Type of assay: in vitro ADME. Particulars: human liver microsomes 0.1 mg/mL, 5 μM diclofenac, 10 min 37° C.; unit inferred. The procedure:
(§1) Determination of IC50 in a Cocktail Assay for CYPs 1A2, 2C9, 2C19, 2D6 and 3A4
(§2) This assay was performed in a standard 96-well plate design. IC50 values were calculated from the percent inhibition observed for each test compound at 6 concentrations (for example, 0.0032, 0.016, 0.08, 0.4, 2 and 10 μM). The incubation substrate mix contains 10 μM phenacetin (1A2), 5 μM diclofenac (2C9), 30 μM mephenytoin (2C19), 5 μM dextromethorphan (2D6) and 2 μM midazolam (3A4), 0.1 mg/mL protein human liver microsomes (BD Gentest), 1 mM NAPDH, 3.3 mM MgCl2 and 100 mM potassium phosphate buffer (pH 7.4). The production of the metabolite of each probe substrate was determined after incubation for 10 min at 37° C. Quantitation of the metabolite peak area ratio against an internal standard (tolbutamide) was determined by LC/MS/MS analysis following acetonitrile treatment of the incubations.
(§3) Samples were analyzed in the MRM mode with a SCIEX API-4000 mass spectrometer (Applied Biosystems, Foster City, Calif.), with a Shimadzu LC-20 AD pump (Shimadzu corporation, Kyoto, JP) and a CTC PAL autosampler (Agilent Technologies, Switzerland). A Phenomenex, Luna, 5 μm, 100 A, 2.00×30 mm HPLC column was used for the separation. The mobile phases were: (A) 0.1% formic acid in water and (B) 0.1% formic acid in acetonitrile. The binary gradient was as follows.
(§4) The peak area ratio of the analyte to the internal standard was used to quantify the metabolite. The values of peak area ratios in the presence of test compound were compared to those of maximum or minimum controls and were expressed as % inhibition by interpolating between the maximum and minimum peak area ratios. Incubations with no inhibitor were defined as the maxima.
(§5) The following equation was used to calculate the % inhibition: [1−[(X−Low control)/(High control−Low control)]]*100
(§6) For the IC50 calculation, SigmaPlot was used to plot the mean % inhibition versus the test compound concentrations and for non-linear regression analysis of the data. […]
(Liver microsomes are vesicles of endoplasmic reticulum, rich in cytochrome P450 enzymes.)

The target of assay [2] is T2, CYP3A4 (Homo sapiens, UniProt P08684).
T2 construct: 0.01 mg/mL protein human liver microsomes (BD Gentest); tissue BD Gentest; host or cells: human liver microsomes
T2 sequence (P08684 2-503): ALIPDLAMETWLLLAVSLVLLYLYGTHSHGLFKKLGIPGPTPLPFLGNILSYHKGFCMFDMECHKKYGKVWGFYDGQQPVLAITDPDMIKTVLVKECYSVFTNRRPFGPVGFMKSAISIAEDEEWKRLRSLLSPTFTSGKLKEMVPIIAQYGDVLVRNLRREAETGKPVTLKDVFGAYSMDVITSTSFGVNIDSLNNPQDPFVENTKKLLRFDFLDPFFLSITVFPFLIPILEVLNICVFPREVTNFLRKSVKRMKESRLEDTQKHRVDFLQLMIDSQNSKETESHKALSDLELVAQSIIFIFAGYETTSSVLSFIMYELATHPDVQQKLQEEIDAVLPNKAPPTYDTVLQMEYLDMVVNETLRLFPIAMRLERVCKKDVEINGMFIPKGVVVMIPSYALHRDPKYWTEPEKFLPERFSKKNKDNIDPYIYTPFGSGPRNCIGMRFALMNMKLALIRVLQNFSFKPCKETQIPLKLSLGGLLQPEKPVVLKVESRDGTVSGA
Kind of assay: IC50 vs CYP3A by inhibition of lopinavir metabolism in human liver microsomes. Type of assay: biochemical. The following applies: human liver microsomes 0.01 mg/mL, 1.5 μM lopinavir, 8 min 37° C.; test conc. e.g. 0.098-100 nM; unit inferred; read-out: 3A4(LPV). The procedure: Determination of IC50 Vs CYP3A by Measurement of Inhibition of Lopinavir Metabolism
This assay was performed in a standard 96-well plate design. IC50 values were calculated from the percent inhibition observed for each test compound at 6 concentrations (for example, 0.098, 0.391, 1.56, 6.25, 25 and 100 nM). The incubation substrate mix contains 1.5 μM lopinavir, 0.01 mg/mL protein human liver microsomes (BD Gentest), 1 mM NAPDH, 3.3 mM MgCl2 and 100 mM potassium phosphate buffer (pH 7.4). The production of the sum of three hydroxylated metabolites (M2: 6-hydroxy lopinavir, M3: 4-hydroxy lopinavir, M4: 4-hydroxy lopinavir (epimer of M3), Kumar et al., 1999) was determined after incubation for 8 min at 37° C. Quantitation of the metabolite peak area ratio against an internal standard (tolbutamide) was determined by LC/MS/MS analysis following acetonitrile treatment of the incubations.
as §3
The peak area ratio of the analyte to the internal standard was used to quantify the metabolite. The values of peak area ratios in the presence of test compound were compared to those of maximum or minimum controls and were expressed as % inhibition by interpolating between the maximum and minimum peak area ratios. Incubations with no inhibitor were defined as the maxima and with 5 μM ketoconazole were defined as the minima.
as §5
For the IC50 calculation, SigmaPlot was used to plot the mean % inhibition versus the test compound concentrations and for non-linear regression analysis of the data. Depending on the range of data points defining the inhibition curve, the data may have been fit to the 4-parameter logistic equation.

Assay [3] has as its target T3, CYP2D6 (Homo sapiens, UniProt P10635).
T3 construct: 0.1 mg/mL protein human liver microsomes (BD Gentest); tissue BD Gentest; host or cells: human liver microsomes
As to the kind of experiment: Cocktail CYP inhibition assay in human liver microsomes, dextromethorphan O-demethylation. Type of assay: in vitro ADME. Particulars: human liver microsomes 0.1 mg/mL, 5 μM dextromethorphan, 10 min 37° C.; unit inferred. The procedure:
as §1, §2, §3, §4, §5, §6

The target of assay [4] is T4, human CYP11B1 (Homo sapiens, UniProt P15538).
T4 construct: expressed in transfected cells
T4 sequence (P15538 25-503): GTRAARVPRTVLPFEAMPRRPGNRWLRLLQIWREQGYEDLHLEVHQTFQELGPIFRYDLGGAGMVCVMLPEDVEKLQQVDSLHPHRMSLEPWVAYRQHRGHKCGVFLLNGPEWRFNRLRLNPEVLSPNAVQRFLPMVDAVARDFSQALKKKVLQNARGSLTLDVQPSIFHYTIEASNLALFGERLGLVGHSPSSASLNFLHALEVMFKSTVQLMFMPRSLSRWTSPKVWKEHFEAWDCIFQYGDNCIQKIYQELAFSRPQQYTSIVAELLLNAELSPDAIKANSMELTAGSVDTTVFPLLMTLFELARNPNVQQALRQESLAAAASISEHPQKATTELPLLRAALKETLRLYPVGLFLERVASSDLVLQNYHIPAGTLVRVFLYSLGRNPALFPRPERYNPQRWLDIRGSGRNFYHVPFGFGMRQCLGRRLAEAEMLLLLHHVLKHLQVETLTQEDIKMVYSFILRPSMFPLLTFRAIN
Kind of assay: IC50 vs CYP11B1 by cortisol synthesis in V79 cells (HTRF). It is filed as cell-based. The following applies: V79 cells expressing human CYP11B1, 1500 nM RSS, test conc. 0.5-10000 nM, unit inferred. The procedure:
Determination of IC50 Vs CYP11B1/CYP11B2 by Measurement of Cortisol/Aldosterone Synthesis
This assay was performed in a standard 384-well plate design using cultured V79 cells stably expressing human CYP11B1 or human CYP11B2. Test compounds at 10 concentrations (for example, 10000, 3333.3, 1111.1, 370.4, 123.5, 41.2, 13.7, 4.6, 1.5 and 0.5 nM) were added in 384-well plate after the cell-seeding procedure. The incubation substrate contains 1500 nM RSS for CYP11B1 assay/750 nM DOC for CYP11B2 assay. The Cortisol/Aldosterone production of cell culture supernatant was determined by Cortisol/Aldosterone HTRF kit after for about 15 hours incubation at RT (protect from light). IC50 values were calculated from the percent inhibition observed for each test compound at 10 concentrations.
The assay plate was read using Envision (Perkin Elmer, Waltham, Mass.) at 665 nm and 590 nm (using Filter Barcode of 217#, 205#; Mirror Barcode of 446#).
Data are analyzed using Assay Data Analyzer. All ratio data (665 nm/590 nm) are back calculated according to the standard curve, resulting in Cortisol/Aldosterone concentrations. IC50 values are reported as the Inflection Point (IP) of a four parameter fit of the titration data.
The following equation was used to calculate the % inhibition: % Activity=100×{1−(Sample_back calculated Cortisol/Aldosterone concentration−LC_back calculated Cortisol/Aldosterone concentration)/(HC_back calculated Cortisol/Aldosterone concentration−LC_back calculated Cortisol/Aldosterone concentration)} Curve Fitting: Four Parameter Logistic: […]
On the technique in general: TR-FRET usually uses a lanthanide donor and a delayed reading to cut background.

T3 sequence (P10635 whole entry): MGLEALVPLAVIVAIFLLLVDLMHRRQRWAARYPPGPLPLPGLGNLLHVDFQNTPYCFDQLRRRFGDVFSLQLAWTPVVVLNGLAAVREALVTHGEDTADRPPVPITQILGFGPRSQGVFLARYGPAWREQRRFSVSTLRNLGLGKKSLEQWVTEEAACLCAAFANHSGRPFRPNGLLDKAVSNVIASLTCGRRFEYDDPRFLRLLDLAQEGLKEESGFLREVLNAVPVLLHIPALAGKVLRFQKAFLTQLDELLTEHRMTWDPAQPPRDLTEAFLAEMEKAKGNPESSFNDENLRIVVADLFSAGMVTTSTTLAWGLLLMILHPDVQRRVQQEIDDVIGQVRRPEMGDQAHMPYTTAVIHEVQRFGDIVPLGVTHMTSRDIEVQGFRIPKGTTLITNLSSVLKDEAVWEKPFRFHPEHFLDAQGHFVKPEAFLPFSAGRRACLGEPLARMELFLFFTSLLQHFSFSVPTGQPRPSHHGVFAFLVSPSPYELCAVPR
T1 sequence (P11712 whole entry): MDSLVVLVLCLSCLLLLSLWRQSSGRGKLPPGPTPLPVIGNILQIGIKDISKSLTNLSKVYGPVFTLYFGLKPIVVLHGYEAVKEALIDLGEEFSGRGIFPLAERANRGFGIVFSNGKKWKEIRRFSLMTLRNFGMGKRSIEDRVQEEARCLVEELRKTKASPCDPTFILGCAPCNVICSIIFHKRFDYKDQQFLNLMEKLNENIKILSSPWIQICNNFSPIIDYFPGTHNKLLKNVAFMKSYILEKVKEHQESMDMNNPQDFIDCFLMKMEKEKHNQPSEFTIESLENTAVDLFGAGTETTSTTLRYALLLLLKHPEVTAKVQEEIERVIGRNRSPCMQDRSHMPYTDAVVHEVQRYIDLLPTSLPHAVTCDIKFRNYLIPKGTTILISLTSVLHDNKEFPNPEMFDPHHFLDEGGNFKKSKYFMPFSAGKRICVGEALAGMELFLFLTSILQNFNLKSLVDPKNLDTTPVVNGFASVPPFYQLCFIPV

Turning to `COCCC(c1cncn1[C@H](C)c1ccc(F)cc1)N1CCN(S(=O)(=O)c2cnc(N3CCN(C)CC3)s2)CC1` (single isomer, unassigned) [Compound 36], the IC50 in assay [1] is > 10 µM; in assay [2], 0.0043 µM; in assay [3], 4.08 µM; in assay [4] it was 1.35 µM.

Consider `C[C@H](c1ccc(F)cc1)n1cncc1C1CCCC2CN(S(=O)(=O)c3cnc(Nc4ccccn4)s3)CCN21` (single isomer, unassigned) [Compound 38], for which the IC50 in assay [1] was determined as 1.22 µM; in assay [2] it was 0.0025 µM; in assay [3], 7.13 µM; in assay [4], 2.14 µM.

As to `COCC(c1cncn1[C@H](C)c1ccc(F)cc1)N1CCN(S(=O)(=O)c2cnc(N3CCN(C)CC3)s2)CC1` (single isomer, unassigned) [Compound 35], the IC50 in assay [1] was > 10 µM; in assay [2] it was 0.0038 µM; in assay [3], 8.89 µM; in assay [4], 2.18 µM.
